These compounds were tested against T1, human Werner helicase (Uniprot Q14191, amino acids 517-1235 with L1074F point mutation), WRN-BV08 (Homo sapiens, UniProt Q14191, L1074F) (assay: WRN (BV08) ADP-Glo Assay).
T1 construct: Uniprot Q14191, amino acids 517-1235 with L1074F point mutation; TEV cleavable 8xHis tag (C, cleaved yes); made in house; host or cells: Sf9 insect cells (baculovirus, pFastBac)
Assay type: biochemical

T1 sequence (Q14191 517-1235 L1074F): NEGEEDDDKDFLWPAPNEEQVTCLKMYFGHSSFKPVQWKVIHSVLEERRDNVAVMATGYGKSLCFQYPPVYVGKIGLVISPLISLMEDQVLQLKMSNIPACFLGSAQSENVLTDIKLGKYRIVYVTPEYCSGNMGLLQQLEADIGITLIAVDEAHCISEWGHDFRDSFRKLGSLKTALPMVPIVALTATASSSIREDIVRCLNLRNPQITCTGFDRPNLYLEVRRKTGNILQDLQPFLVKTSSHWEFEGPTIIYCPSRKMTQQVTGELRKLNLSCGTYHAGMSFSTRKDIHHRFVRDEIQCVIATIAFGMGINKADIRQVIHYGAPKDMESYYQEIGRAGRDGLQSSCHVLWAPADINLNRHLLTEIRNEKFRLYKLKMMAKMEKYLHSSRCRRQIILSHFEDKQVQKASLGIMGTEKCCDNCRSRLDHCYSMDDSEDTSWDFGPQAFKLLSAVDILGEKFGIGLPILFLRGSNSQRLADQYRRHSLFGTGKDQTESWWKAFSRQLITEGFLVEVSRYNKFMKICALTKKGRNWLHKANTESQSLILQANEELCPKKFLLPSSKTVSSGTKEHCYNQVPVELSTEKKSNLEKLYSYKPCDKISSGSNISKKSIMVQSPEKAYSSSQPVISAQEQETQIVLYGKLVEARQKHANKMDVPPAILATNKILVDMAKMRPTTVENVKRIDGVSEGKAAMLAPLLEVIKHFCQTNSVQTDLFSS

Compound	IC50
CCc1c(N2CCN(C(=O)CC(C)(C)O)CC2)c(=O)n2nc(C3=CCOCC3)nc2n1CC(=O)Nc1ccc(C(F)(F)F)cc1Cl [Compound I-40, N-[2-chloro-4-(trifluoromethyl)phenyl]-2-[2-(3,6-dihydro-2H-pyran-4-yl)-5-ethyl-6-[4-(3-hydroxy-3-methylbutanoyl)piperazin-1-yl]-7-oxo-4H,7H-[1,2,4]triazolo[1,5-a]pyrimidin-4-yl]acetamide]	50 to 100 nM
CCc1c(N2CCN(C(=O)c3cn[nH]n3)CC2)c(=O)n2nc(C3=CCOCC3)nc2n1CC(=O)Nc1ccc(C(F)(F)F)cc1Cl [Compound I-38, N-[2-chloro-4-(trifluoromethyl)phenyl]-2-[2-(3,6-dihydro-2H-pyran-4-yl)-5-ethyl-7-oxo-6-[4-(2H-1,2,3-triazole-4-carbonyl)piperazin-1-yl]-4H,7H-[1,2,4]triazolo[1,5-a]pyrimidin-4-yl]acetamide]	< 5 nM
CCc1c(N2CCN(C(=O)c3nn(C)cc3O)CC2)c(=O)n2nc(C3CC3)nc2n1CC(=O)Nc1ccc(C(F)(F)F)cc1Cl [Compound I-36, N-[2-chloro-4-(trifluoromethyl)phenyl]-2-{2-cyclopropyl-5-ethyl-6-[4-(4-hydroxy-1-methyl-1H-pyrazole-3-carbonyl)piperazin-1-yl]-7-oxo-4H,7H-[1,2,4]triazolo[1,5-a]pyrimidin-4-yl}acetamide]	100 to 500 nM
CCc1c(N2CCN(C(=O)C(C)(C)O)CC2)c(=O)n2nc(C3=CCOCC3)nc2n1CC(=O)Nc1ccc(C(F)(F)F)cc1Cl [Compound I-18, N-[2-chloro-4-(trifluoromethyl)phenyl]-2-[2-(3,6-dihydro-2H-pyran-4-yl)-5-ethyl-6-[4-(2-hydroxy-2-methylpropanoyl)piperazin-1-yl]-7-oxo-4H,7H-[1,2,4]triazolo[1,5-a]pyrimidin-4-yl]acetamide]	50 to 100 nM
CCc1c(N2CCN(C(=O)c3sccc3O)CC2)c(=O)n2nc(C3=CCOCC3)nc2n1CC(=O)Nc1ccc(C(F)(F)F)cc1Cl [Compound I-6, N-[2-chloro-4-(trifluoromethyl)phenyl]-2-[2-(3,6-dihydro-2H-pyran-4-yl)-5-ethyl-6-[4-(3-hydroxythiophene-2-carbonyl)piperazin-1-yl]-7-oxo-4H,7H-[1,2,4]triazolo[1,5-a]pyrimidin-4-yl]acetamide]	5 to 50 nM
CCc1c(N2CCN(C(=O)c3c(O)cccc3F)CC2)c(=O)n2nc(C3=CCOCC3)nc2n1CC(=O)Nc1ccc(C(F)(F)F)cc1Cl [Compound I-1, N-[2-chloro-4-(trifluoromethyl)phenyl]-2-[2-(3,6-dihydro-2H-pyran-4-yl)-5-ethyl-6-[4-(2-fluoro-6-hydroxybenzoyl)piperazin-1-yl]-7-oxo-4H,7H-[1,2,4]triazolo[1,5-a]pyrimidin-4-yl]acetamide]	5 to 50 nM

The next lines start with the values.

IC50	Compound
5 to 50 nM	CCc1c(N2CCN(C(=O)c3cnc(C)cc3O)CC2)c(=O)n2nc(C3=CCOCC3)nc2n1CC(=O)Nc1ccc(C(F)(F)F)cc1Cl [Compound I-2, N-[2-chloro-4-(trifluoromethyl)phenyl]-2-[2-(3,6-dihydro-2H-pyran-4-yl)-5-ethyl-6-[4-(4-hydroxy-6-methylpyridine-3-carbonyl)piperazin-1-yl]-7-oxo-4H,7H-[1,2,4]triazolo[1,5-a]pyrimidin-4-yl]acetamide]
5 to 50 nM	CCc1c(N2CCN(C(=O)c3c(C)nn(C)c3OC)CC2)c(=O)n2nc(-c3ccnc(OC)c3)nc2n1CC(=O)Nc1ccc(C(F)(F)F)cc1Cl [Compound I-62, N-[2-chloro-4-(trifluoromethyl)phenyl]-2-{5-ethyl-6-[4-(5-methoxy-1,3-dimethyl-1H-pyrazole-4-carbonyl)piperazin-1-yl]-2-(2-methoxypyridin-4-yl)-7-oxo-4H,7H-[1,2,4]triazolo[1,5-a]pyrimidin-4-yl}acetamide]
5 to 50 nM	CCc1c(N2CCN(C(=O)c3coc(C)n3)CC2)c(=O)n2nc(-c3ccnc(OC)c3)nc2n1CC(=O)Nc1ccc(C(F)(F)F)cc1Cl [Compound I-75, N-[2-chloro-4-(trifluoromethyl)phenyl]-2-[5-ethyl-2-(2-methoxypyridin-4-yl)-6-[4-(2-methyl-1,3-oxazole-4-carbonyl)piperazin-1-yl]-7-oxo-4H,7H-[1,2,4]triazolo[1,5-a]pyrimidin-4-yl]acetamide]
5 to 50 nM	CCc1c(N2CCN(C(=O)c3nocc3O)CC2)c(=O)n2nc(-c3ccnc(OC)c3)nc2n1CC(=O)Nc1ccc(C(F)(F)F)cc1Cl [Compound I-88, N-[2-chloro-4-(trifluoromethyl)phenyl]-2-{5-ethyl-6-[4-(4-hydroxy-1,2-oxazole-3-carbonyl)piperazin-1-yl]-2-(2-methoxypyridin-4-yl)-7-oxo-4H,7H-[1,2,4]triazolo[1,5-a]pyrimidin-4-yl}acetamide]
5 to 50 nM	CCc1c(N2CCN(C(=O)c3cnn(C(F)F)c3)CC2)c(=O)n2nc(-c3ccnc(OC)c3)nc2n1CC(=O)Nc1ccc(C(F)(F)F)cc1Cl [Compound I-61, N-[2-chloro-4-(trifluoromethyl)phenyl]-2-(6-{4-[1-(difluoromethyl)-1H-pyrazole-4-carbonyl]piperazin-1-yl}-5-ethyl-2-(2-methoxypyridin-4-yl)-7-oxo-4H,7H-[1,2,4]triazolo[1,5-a]pyrimidin-4-yl)acetamide]
5 to 50 nM	CCc1c(N2CCN(C(=O)c3nn(C)cc3O)CC2)c(=O)n2nc(-c3ccnc(OC)c3)nc2n1CC(=O)Nc1ccc(C(F)(F)F)cc1Cl [Compound I-35, N-[2-chloro-4-(trifluoromethyl)phenyl]-2-{5-ethyl-6-[4-(4-hydroxy-1-methyl-1H-pyrazole-3-carbonyl)piperazin-1-yl]-2-(2-methoxypyridin-4-yl)-7-oxo-4H,7H-[1,2,4]triazolo[1,5-a]pyrimidin-4-yl}acetamide]
